Target: ATM (Homo sapiens (Human), UniProt Q13315)
Test: biochemical
Type: biochemical
Settings: read-out: ATM IC50
From the text: Assay a): ATM Biochemical Potency
Data was collected by Caliper.

Chain of ATM (Q13315 whole entry, looked up): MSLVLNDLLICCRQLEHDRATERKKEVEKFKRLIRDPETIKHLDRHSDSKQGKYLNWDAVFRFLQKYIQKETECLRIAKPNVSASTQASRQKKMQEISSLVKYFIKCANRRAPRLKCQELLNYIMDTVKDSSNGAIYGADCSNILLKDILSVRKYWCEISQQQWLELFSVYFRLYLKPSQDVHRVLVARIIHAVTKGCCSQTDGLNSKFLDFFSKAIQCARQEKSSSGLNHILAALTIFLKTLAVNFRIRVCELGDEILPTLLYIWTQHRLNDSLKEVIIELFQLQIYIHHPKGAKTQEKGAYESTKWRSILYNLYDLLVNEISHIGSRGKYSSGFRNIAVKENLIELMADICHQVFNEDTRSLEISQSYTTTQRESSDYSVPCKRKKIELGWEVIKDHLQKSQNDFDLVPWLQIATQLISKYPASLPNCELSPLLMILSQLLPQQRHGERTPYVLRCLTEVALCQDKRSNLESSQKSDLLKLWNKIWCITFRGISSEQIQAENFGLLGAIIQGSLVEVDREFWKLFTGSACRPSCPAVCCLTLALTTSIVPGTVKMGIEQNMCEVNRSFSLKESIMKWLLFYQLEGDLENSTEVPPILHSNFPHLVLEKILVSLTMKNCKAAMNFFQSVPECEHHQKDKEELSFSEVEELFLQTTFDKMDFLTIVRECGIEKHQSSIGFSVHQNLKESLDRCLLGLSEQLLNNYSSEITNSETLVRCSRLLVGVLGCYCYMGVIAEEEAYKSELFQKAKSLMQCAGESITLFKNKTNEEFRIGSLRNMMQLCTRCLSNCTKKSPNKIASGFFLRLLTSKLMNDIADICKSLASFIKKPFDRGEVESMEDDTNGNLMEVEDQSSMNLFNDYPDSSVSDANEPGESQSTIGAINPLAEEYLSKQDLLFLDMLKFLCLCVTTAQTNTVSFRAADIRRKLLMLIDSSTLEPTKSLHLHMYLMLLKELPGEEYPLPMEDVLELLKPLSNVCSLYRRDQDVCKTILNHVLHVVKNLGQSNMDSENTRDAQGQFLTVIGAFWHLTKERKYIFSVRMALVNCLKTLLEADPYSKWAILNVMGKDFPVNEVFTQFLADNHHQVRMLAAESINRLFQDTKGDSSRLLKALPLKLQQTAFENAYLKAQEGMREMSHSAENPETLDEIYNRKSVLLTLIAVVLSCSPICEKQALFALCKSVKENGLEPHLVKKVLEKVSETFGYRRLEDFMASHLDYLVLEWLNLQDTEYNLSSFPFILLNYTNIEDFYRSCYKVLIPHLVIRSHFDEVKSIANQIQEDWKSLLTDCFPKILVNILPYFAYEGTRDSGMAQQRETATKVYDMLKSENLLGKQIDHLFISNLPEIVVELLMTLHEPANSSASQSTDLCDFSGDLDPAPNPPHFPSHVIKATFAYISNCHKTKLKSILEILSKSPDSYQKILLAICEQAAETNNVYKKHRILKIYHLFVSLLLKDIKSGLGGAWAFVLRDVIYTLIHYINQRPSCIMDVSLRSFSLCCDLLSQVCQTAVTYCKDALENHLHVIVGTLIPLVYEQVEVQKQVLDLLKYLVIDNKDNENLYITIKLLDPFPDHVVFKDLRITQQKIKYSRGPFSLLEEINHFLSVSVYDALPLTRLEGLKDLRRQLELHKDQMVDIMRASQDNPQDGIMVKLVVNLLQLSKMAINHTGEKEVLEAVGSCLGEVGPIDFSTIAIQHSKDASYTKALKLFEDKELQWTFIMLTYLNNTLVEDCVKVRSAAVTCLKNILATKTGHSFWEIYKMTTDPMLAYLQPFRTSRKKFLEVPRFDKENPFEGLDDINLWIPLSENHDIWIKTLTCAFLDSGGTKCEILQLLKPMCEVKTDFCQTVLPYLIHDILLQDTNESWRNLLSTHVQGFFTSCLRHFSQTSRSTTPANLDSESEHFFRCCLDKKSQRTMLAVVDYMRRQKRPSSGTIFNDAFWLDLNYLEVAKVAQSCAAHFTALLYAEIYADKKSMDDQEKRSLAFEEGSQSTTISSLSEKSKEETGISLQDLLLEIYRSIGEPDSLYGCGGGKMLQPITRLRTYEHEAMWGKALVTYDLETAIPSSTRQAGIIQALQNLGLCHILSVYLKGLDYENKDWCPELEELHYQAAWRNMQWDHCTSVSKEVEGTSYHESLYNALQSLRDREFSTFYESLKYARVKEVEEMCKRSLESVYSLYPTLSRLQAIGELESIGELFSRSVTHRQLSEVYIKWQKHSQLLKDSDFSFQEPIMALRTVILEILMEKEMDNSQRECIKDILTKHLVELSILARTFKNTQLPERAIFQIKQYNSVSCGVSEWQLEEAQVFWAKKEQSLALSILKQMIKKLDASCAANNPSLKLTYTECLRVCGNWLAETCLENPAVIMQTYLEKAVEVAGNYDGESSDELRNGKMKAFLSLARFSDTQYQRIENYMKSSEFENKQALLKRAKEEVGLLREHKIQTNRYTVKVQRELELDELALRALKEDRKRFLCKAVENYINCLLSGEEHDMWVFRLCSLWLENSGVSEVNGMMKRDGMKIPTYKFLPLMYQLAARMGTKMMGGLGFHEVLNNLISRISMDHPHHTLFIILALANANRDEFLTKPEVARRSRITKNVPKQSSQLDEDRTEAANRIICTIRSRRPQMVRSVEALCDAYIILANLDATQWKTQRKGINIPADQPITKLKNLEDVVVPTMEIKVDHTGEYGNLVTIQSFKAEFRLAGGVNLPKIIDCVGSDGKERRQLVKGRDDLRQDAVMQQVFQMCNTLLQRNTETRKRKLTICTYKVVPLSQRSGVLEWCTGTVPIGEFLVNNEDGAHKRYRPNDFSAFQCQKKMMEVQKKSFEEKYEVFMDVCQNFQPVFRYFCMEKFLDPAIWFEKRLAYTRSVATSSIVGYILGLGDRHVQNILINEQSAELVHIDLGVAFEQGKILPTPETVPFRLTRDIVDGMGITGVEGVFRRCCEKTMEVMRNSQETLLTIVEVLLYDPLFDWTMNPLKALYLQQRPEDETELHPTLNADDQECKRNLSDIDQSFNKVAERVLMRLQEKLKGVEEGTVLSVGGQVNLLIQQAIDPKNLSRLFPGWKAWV

| Structure (SMILES) | IC50 [nM] |
| --- | --- |
| CC(C)n1c(=O)n(C)c2nnc3ccc(-c4ccc(COCCN5CC[C@@H](OC(F)F)C5)nc4)cc3c21 [Example 50, (R)-8-(6-((2-(3-(difluoromethoxy)pyrrolidin-1-yl)ethoxy)methyl)pyridin-3-yl)-1-isopropyl-3-methyl-1H-imidazo[4,5-c]cinnolin-2(3H)-one] | 11 |
| CC(C)n1c(=O)n(C)c2nnc3ccc(-c4ccc(COCCN5CC[C@H](OC(F)F)C5)nc4)cc3c21 [Example 51, (S)-8-(6-((2-(3-(difluoromethoxy)pyrrolidin-1-yl)ethoxy)methyl)pyridin-3-yl)-1-isopropyl-3-methyl-1H-imidazo[4,5-c]cinnolin-2(3H)-one] | 7.6 |
| CC(C)n1c(=O)n(C)c2nnc3ccc(-c4ccc([C@@H](C)OCCN5CCC(OC(F)(F)F)CC5)nc4)cc3c21 [Example 58, (R)-1-isopropyl-3-methyl-8-(6-(1-(2-(4-(trifluoromethoxy)piperidin-1-yl)ethoxy)ethyl)pyridin-3-yl)-1H-imidazo[4,5-c]cinnolin-2(3H)-one] | 1.4 |
| CC(C)n1c(=O)n(C)c2nnc3ccc(-c4ccc([C@@H](C)OCCN5CCC(OC(F)(F)F)C5)nc4)cc3c21 (stereo partly drawn) [Example 60] | 2.8 |
| CC(C)n1c(=O)n(C)c2nnc3ccc(-c4ccc([C@@H](C)OCCN5CCC(C)(C)C5)nc4)cc3c21 [Example 61, (R)-8-(6-(1-(2-(3,3-dimethylpyrrolidin-1-yl)ethoxy)ethyl)pyridin-3-yl)-1-isopropyl-3-methyl-1H-imidazo[4,5-c]cinnolin-2(3H)-one] | 3.4 |
| CO[C@@H]1CCN(CCO[C@@H](C)c2ccc(-c3ccc4nnc5c(c4c3)n(C(C)C)c(=O)n5C)cn2)C1 [Example 64, 1-isopropyl-8-(6-((S)-1-(2-((R)-3-methoxypyrrolidin-1-yl)ethoxy)ethyl)pyridin-3-yl)-3-methyl-1H-imidazo[4,5-c]cinnolin-2(3H)-one] | 19 |
| CO[C@H]1CCN(CCO[C@@H](C)c2ccc(-c3ccc4nnc5c(c4c3)n(C(C)C)c(=O)n5C)cn2)C1 [Example 65, 1-isopropyl-8-(6-((S)-1-(2-((S)-3-methoxypyrrolidin-1-yl)ethoxy)ethyl)pyridin-3-yl)-3-methyl-1H-imidazo[4,5-c]cinnolin-2(3H)-one] | 167 |
| CC(C)n1c(=O)n(C)c2nnc3ccc(-c4ccc([C@@H](C)OCCN5CC6CC6C5)nc4)cc3c21 (stereo partly drawn) [Example 66, 8-(6-((1R)-1-(2-(3-azabicyclo[3.1.0]hexan-3-yl)ethoxy)ethyl)pyridin-3-yl)-1-isopropyl-3-methyl-1H-imidazo[4,5-c]cinnolin-2(3H)-one] | 10 |
| CC(C)n1c(=O)n(C)c2nnc3ccc(-c4ccc([C@H](C)OCCN5CC6CC6C5)nc4)cc3c21 (stereo partly drawn) [Example 67, 8-(6-((1S)-1-(2-(3-azabicyclo[3.1.0]hexan-3-yl)ethoxy)ethyl)pyridin-3-yl)-1-isopropyl-3-methyl-1H-imidazo[4,5-c]cinnolin-2(3H)-one] | 158 |
| CC(C)n1c(=O)n(C)c2nnc3ccc(-c4ccc([C@H](C)OCCN5CCC(F)CC5)nc4)cc3c21 [Example 68, (S)-8-(6-(1-(2-(4-fluoropiperidin-1-yl)ethoxy)ethyl)pyridin-3-yl)-1-isopropyl-3-methyl-1H-imidazo[4,5-c]cinnolin-2(3H)-one] | 160 |
| CC(C)n1c(=O)n(C)c2nnc3ccc(-c4ccc([C@H](C)OCCN5CCC(C)(C)CC5)nc4)cc3c21 [Example 72, (S)-8-(6-(1-(2-(4,4-dimethylpiperidin-1-yl)ethoxy)ethyl)pyridin-3-yl)-1-isopropyl-3-methyl-1H-imidazo[4,5-c]cinnolin-2(3H)-one] | 50 |
| CC(C)n1c(=O)n(C)c2nnc3ccc(-c4ccc([C@H](C)OCCN5CCC(F)(F)CC5)nc4)cc3c21 [Example 74, (S)-8-(6-(1-(2-(4,4-difluoropiperidin-1-yl)ethoxy)ethyl)pyridin-3-yl)-1-isopropyl-3-methyl-1H-imidazo[4,5-c]cinnolin-2(3H)-one] | 179 |

— patent US20240207263A1, “SELECTIVE MODULATORS OF ATAXIA TELA[…] (ATM) KINASE AND USES THEREOF” (priority 2021, published 2024)
